# Assay results published in patent US6737383B1, “Herbicidal oxadiazolidines” (priority 1999, dated 2004).
# Columns and labels:
# rice = test: Test B flood test rice; type: in vivo, Oryza sativa
# Outline: (§1)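 Flood test on plants grown to the 2-leaf stage; treated plants kept in greenhouse twelve to sixteen days, then visually rated against controls on a 0 (no effect) to 10 (complete control) scale.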
# velvetleaf = test: Test B pre/postemergence velvetleaf; type: in vivo, Abutilon theophrasti
# Outline: (§2)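 Test chemicals in a non-phytotoxic solvent mixture with surfactant were sprayed preemergence onto planted seeds and postemergence onto plants 2 to 18 cm tall (1- to 4-leaf stage). After twelve to sixteen days in a greenhouse, injury was visually rated against untreated controls from 0 (no effect) to 10 (complete control).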
# giant foxtail = test: Test B pre/postemergence giant foxtail; type: in vivo, Setaria faberii
# Outline: as §2
# bedstraw = test: Test B pre/postemergence bedstraw; type: in vivo, Galium aparine; conditions: Preemergence; for Bedstraw plant response rating: scale of 0 to 10 where 0 is no effect and 10 is complete control
# Outline: as §2
# wild oat = test: Test B pre/postemergence wild oat; type: in vivo, Avena fatua
# Outline: as §2
# morningglory = test: Test B pre/postemergence morningglory; type: in vivo, Ipomoea hederacea
# Outline: as §2
# cocklebur = test: Test B pre/postemergence cocklebur; type: in vivo, Xanthium strumarium
# Outline: as §2
# surinam grass = test: Test B pre/postemergence surinam grass; type: in vivo, Brachiaria decumbens
# Outline: as §2
# soybean = test: Test B pre/postemergence soybean; type: in vivo, Glycine max
# Outline: as §2
# sugar beet = test: Test B pre/postemergence sugar beet; type: in vivo, Beta vulgaris
# Outline: as §2
# blackgrass = test: Test B pre/postemergence blackgrass; type: in vivo, Alopecurus myosuroides
# Outline: as §2
# pigweed = test: Test B pre/postemergence pigweed; type: in vivo, Amaranthus retroflexus
# Outline: as §2
# crabgrass = test: Test B pre/postemergence crabgrass; type: in vivo, Digitaria sanguinalis
# Outline: as §2
# duck salad = test: Test B flood test duck salad; type: in vivo, Heteranthera limosa
# Outline: as §1
# bamyardgrass = test: Test B flood test barnyardgrass; type: in vivo, Echinochloa crus-galli
# Outline: as §1
# wheat = test: Test B pre/postemergence wheat; type: in vivo, Triticum aestivum
# Outline: as §2
# rape = test: Test B pre/postemergence rape; type: in vivo, Brassica napus
# Outline: as §2
# smallflower flatsedge = test: Test B flood test smallflower flatsedge; type: in vivo, Cyperus difformis
# Outline: as §1
# purple nutsedge = test: Test B pre/postemergence purple nutsedge; type: in vivo, Cyperus rotundus
# Outline: as §2
# corn = test: Test B pre/postemergence corn; type: in vivo, Zea mays
# Outline: as §2
# [1] = Pre-emergence, Rate 1000 g/ha, scale 0 to 10 (0 no effect, 10 complete control)
# [2] = Rate 125 g/ha, under heading Pre-emergence, flood test species, visual evaluation after twelve to sixteen days
# [3] = Rate 250 g/ha, Pre-emergence (flood test species), scale 0 to 10, 0 is no effect, 10 is complete control
# [4] = Rate 500 g/ha, Pre-emergence section of Table B, 0 to 10 scale (0 no effect, 10 complete control)
# [5] = Postemergence, Rate 125 g/ha, scale of 0 to 10 where 0 is no effect and 10 is complete control
# [6] = Postemergence, Rate 250 g/ha, scale of 0 to 10, 0 is no effect, 10 is complete control
# [7] = Postemergence, Rate 500 g/ha, scale of 0 to 10 where 0 is no effect and 10 is complete control
# [8] = Postemergence, Rate 1000 g/ha, scale 0 to 10 (0 no effect, 10 complete control)
# [9] = Preemergence, Rate 125 g/ha, scale of 0 to 10 where 0 is no effect and 10 is complete control
# [10] = Preemergence, Rate 500 g/ha, scale of 0 to 10 where 0 is no effect and 10 is complete control
# [11] = Rate 1000 g/ha, Preemergence, scale 0 to 10 (0 no effect, 10 complete control)
smiles,measurement,setting,value
CCOP(=O)(Cn1c(=O)on(C(=O)N(c2ccc(Cl)cc2)C(C)C)c1=O)OCC [Compound 599],Rice plant response rating,rice; [1],0
same,"Rice plant response rating (0 to 10 scale, 0 is no effect, 10 is complete control)",rice; [2],0
same,Rice plant response rating,rice; [3],0
same,Rice plant response rating,rice; [4],0
same,"Plant response rating, Velvetleaf",velvetleaf; [5],0
same,Velvetleaf plant response rating,velvetleaf; [6],0
same,"Plant response rating, Velvetleaf",velvetleaf; [7],0
same,Velvetleaf plant response rating,velvetleaf; [8],3
same,Velvetleaf plant response rating,velvetleaf; [9],0
same,"Plant response rating, Velvetleaf",velvetleaf; [10],0
same,"Plant response rating, Velvetleaf",velvetleaf; [11],0
same,"Plant response rating, Giant foxtail",giant foxtail; [5],0
same,Giant foxtail plant response rating,giant foxtail; [6],0
same,"Plant response rating, Giant foxtail",giant foxtail; [7],0
same,Giant foxtail plant response rating,giant foxtail; [8],4
same,Giant foxtail plant response rating,giant foxtail; [9],9
same,"Plant response rating, Giant foxtail",giant foxtail; [10],10
same,"Plant response rating, Giant foxtail",giant foxtail; [11],10
same,Bedstraw plant response rating,bedstraw; Rate 125 g/ha,0
same,Bedstraw plant response rating (0 to 10 scale),bedstraw; Rate 250 g/ha,0
same,Bedstraw plant response rating,bedstraw; Rate 500 g/ha,0
same,"Plant response rating, Bedstraw","bedstraw; Rate 1000 g/ha, scale 0 to 10 (0 no effect, 10 complete control)",8
same,"Plant response rating, Wild oats",wild oat; [5],0
same,Wild oats plant response rating,wild oat; [6],0
same,"Plant response rating, Wild oats",wild oat; [7],0
same,Wild oats plant response rating,wild oat; [8],0
same,Wild oats plant response rating,wild oat; [9],0
same,"Plant response rating, Wild oats",wild oat; [10],0
same,"Plant response rating, Wild oats",wild oat; [11],0
same,"Plant response rating, Morningglory",morningglory; [5],1
same,Morningglory plant response rating,morningglory; [6],1
same,"Plant response rating, Morningglory",morningglory; [7],6
same,Morningglory plant response rating,morningglory; [8],6
same,Morningglory plant response rating,morningglory; [9],0
same,"Plant response rating, Morningglory",morningglory; [10],0
same,"Plant response rating, Morningglory",morningglory; [11],0
same,"Plant response rating, Cocklebur",cocklebur; [5],0
same,Cocklebur plant response rating,cocklebur; [6],0
same,"Plant response rating, Cocklebur",cocklebur; [7],0
same,Cocklebur plant response rating,cocklebur; [8],0
same,Cocklebur plant response rating,cocklebur; [9],0
same,Cocklebur plant response rating (0 to 10 scale),"cocklebur; Preemergence, Rate 250 g/ha",0
same,"Plant response rating, Cocklebur",cocklebur; [10],0
same,"Plant response rating, Cocklebur",cocklebur; [11],3
same,"Plant response rating, B. signalgrass",surinam grass; [5],0
same,B. signalgrass plant response rating,surinam grass; [6],0
same,"Plant response rating, B. signalgrass",surinam grass; [7],0
same,B. signalgrass plant response rating,surinam grass; [8],0
same,B. signalgrass plant response rating,surinam grass; [9],2
same,"B. signalgrass plant response rating (0 to 10 scale, 0 is no effect, 10 is complete control)","surinam grass; Preemergence, Rate 250 g/ha",2
same,B. signalgrass plant response rating,surinam grass; [10],3
same,"Plant response rating, B. signalgrass",surinam grass; [11],3
same,"Plant response rating, Soybean",soybean; [5],2
same,Soybean plant response rating,soybean; [6],2
same,"Plant response rating, Soybean",soybean; [7],2
same,Soybean plant response rating,soybean; [8],4
same,Soybean plant response rating,soybean; [9],0
same,"Plant response rating, Soybean",soybean; [10],0
same,"Plant response rating, Soybean",soybean; [11],0
same,"Plant response rating, Sugarbeets",sugar beet; [5],0
same,Sugarbeets plant response rating,sugar beet; [6],0
same,"Plant response rating, Sugarbeets",sugar beet; [7],0
same,Sugarbeets plant response rating,sugar beet; [8],0
same,Sugarbeets plant response rating,sugar beet; [9],0
same,"Plant response rating, Sugarbeets",sugar beet; [11],2
same,"Plant response rating, Blackgrass",blackgrass; [5],0
same,Blackgrass plant response rating,blackgrass; [6],0
same,"Plant response rating, Blackgrass",blackgrass; [7],0
same,Blackgrass plant response rating,blackgrass; [8],6
same,Blackgrass plant response rating,blackgrass; [9],0
same,Blackgrass plant response rating (0 to 10 scale),"blackgrass; Preemergence, Rate 250 g/ha",3
same,Blackgrass plant response rating,blackgrass; [10],6
same,"Plant response rating, Blackgrass",blackgrass; [11],8
same,"Plant response rating, Redroot pigweed",pigweed; [5],0
same,Redroot pigweed plant response rating,pigweed; [6],0
same,"Plant response rating, Redroot pigweed",pigweed; [7],0
same,Redroot pigweed plant response rating,pigweed; [8],0
same,Redroot pigweed plant response rating,pigweed; [9],0
same,"Plant response rating, Redroot pigweed",pigweed; [10],0
same,"Plant response rating, Redroot pigweed",pigweed; [11],4
same,"Plant response rating, Crabgrass",crabgrass; [5],0
same,Crabgrass plant response rating,crabgrass; [6],0
same,"Plant response rating, Crabgrass",crabgrass; [7],0
same,Crabgrass plant response rating,crabgrass; [8],0
same,Crabgrass plant response rating,crabgrass; [9],3
same,"Plant response rating, Crabgrass",crabgrass; [10],8
same,"Plant response rating, Crabgrass",crabgrass; [11],8
same,Ducksalad plant response rating,duck salad; [1],0
same,"Ducksalad plant response rating (0 to 10 scale, 0 is no effect, 10 is complete control)",duck salad; [2],0
same,Ducksalad plant response rating,duck salad; [3],0
same,Ducksalad plant response rating,duck salad; [4],0
same,Barnyardgrass plant response rating,bamyardgrass; [1],0
same,"Barnyardgrass plant response rating (0 to 10 scale, 0 is no effect, 10 is complete control)",bamyardgrass; [2],0
same,Barnyardgrass plant response rating,bamyardgrass; [3],0
same,Barnyardgrass plant response rating,bamyardgrass; [4],0
same,"Plant response rating, Wheat",wheat; [5],0
same,Wheat plant response rating,wheat; [6],0
same,"Plant response rating, Wheat",wheat; [7],0
same,Wheat plant response rating,wheat; [8],0
same,Wheat plant response rating,wheat; [9],0
same,"Plant response rating, Wheat",wheat; [10],0
same,"Plant response rating, Wheat",wheat; [11],0
same,"Plant response rating, Rape",rape; [5],0
same,Rape plant response rating,rape; [6],0
same,"Plant response rating, Rape",rape; [7],0
same,Rape plant response rating,rape; [8],0
same,Rape plant response rating,rape; [9],0
same,"Plant response rating, Rape",rape; [10],0
same,"Plant response rating, Rape",rape; [11],3
same,S. Flatsedge plant response rating,smallflower flatsedge; [1],0
same,"S. Flatsedge plant response rating (0 to 10 scale, 0 is no effect, 10 is complete control)",smallflower flatsedge; [2],0
same,S. Flatsedge plant response rating,smallflower flatsedge; [3],0
same,S. Flatsedge plant response rating,smallflower flatsedge; [4],0
same,"Plant response rating, Nutsedge",purple nutsedge; [7],0
same,Nutsedge plant response rating,purple nutsedge; [8],0
same,Nutsedge plant response rating,purple nutsedge; [9],0
same,"Plant response rating, Nutsedge",purple nutsedge; [10],0
same,"Plant response rating, Nutsedge",purple nutsedge; [11],0
same,"Plant response rating, Corn",corn; [5],0
same,Corn plant response rating,corn; [6],0
same,"Plant response rating, Corn",corn; [7],0
same,Corn plant response rating,corn; [8],0
same,Corn plant response rating,corn; [9],0
same,Corn plant response rating (0 to 10 scale),"corn; Preemergence, Rate 250 g/ha",0
same,"Plant response rating, Corn",corn; [10],0
same,"Plant response rating, Corn",corn; [11],0
